Assay results: the CombiSolv-Exp solvation set (Vermeire and Green 2021)

Test: solvent given as SMILES

C=CC(=C)C
Conditions	solvation free energy, 298 K [kcal/mol]
in BrC(Br)C(Br)Br	-2.83
in Brc1cccc2ccccc12	-2.82
in C1=Cc2ccccc2C1	-3.1
in CC1COC(=O)O1	-2.45
in CC(=O)N(C)C	-2.89
in CC(=O)OCc1ccccc1	-2.93
in CC(=O)c1ccccc1	-2.93
in CC(C)CC(C)(C)C	-3.16
in CCC(C)=O	-3.27
in CCCCC#N	-3.06
in CCCCCC#N	-3.11
in CCCCCCC	-3.22
in CCCCCCCC	-3.18
in CCCCCCCCO	-2.81
in CCCCO	-2.89
in CCNC(C)=O	-2.81
in CCOC(C)=O	-3.29
in CN1CCCC1=O	-2.89
in CN(C)C=O	-2.88
in CN(C)P(=O)(N(C)C)N(C)C	-2.89
in CNC(C)=O	-2.74
in CNC=O	-2.44
in CS(C)=O	-2.38
in Cc1cccc2ccccc12	-2.94
in Cc1cccc(O)c1	-2.72
in ClC(Cl)(Cl)Cl	-3.49
in ClC(Cl)C(Cl)Cl	-3.21
in ClCCCl	-3.3
in Clc1cccc2ccccc12	-2.81
in N#CCCCC#N	-2.06
in N#CCCCCC#N	-2.35
in N#CCc1ccccc1	-2.7
in N#Cc1ccccc1	-3
in NCc1ccccc1	-2.85
in Nc1ccccc1	-2.56
in O	0.68
in O=C1CCCCC1	-3.22
in O=C(O)C(Cl)Cl	-2.77
in OCCO	-1.12
in OCc1ccccc1	-2.56
in c1ccc2ncccc2c1	-2.82

CC(C)NC(C)C
Conditions	solvation free energy, 298 K [kcal/mol]
in O	-3.22

CCCCN(CCC)N=O
Conditions	solvation free energy, 298 K [kcal/mol]
in CC(C)CC(C)(C)C	-7.18
in O	-5.12

Oc1ccccc1Cl
Conditions	solvation free energy, 298 K [kcal/mol]
in CC(C)CC(C)(C)C	-5.44
in CCCCCC	-5.72
in CCCCCCC	-5.71
in CCCCCCCC	-5.67
in CCCCCCCCCC	-5.63
in Cc1ccc(C)cc1	-6.37
in Cc1cccc(C)c1	-6.42
in Cc1ccccc1C	-6.41
in O	-4.56

O=[N+]([O-])c1ccc(Cl)cc1
Conditions	solvation free energy, 298 K [kcal/mol]
in O	-5.05

CCOC(=O)CC
Conditions	solvation free energy, 298 K [kcal/mol]
in CCCCCCCC	-4.11
in CCCCCCCCCCCCCCCC	-3.91
in CCCCCCCCO	-4.3
in CCOCCO	-4.58
in CN1CCCC1=O	-4.49
in O	-2.7
in O=CN1CCOCC1	-4.3
in [2H]O[2H]	-2.8

Nc1ccccc1
Conditions	solvation free energy, 298 K [kcal/mol]
in CC(C)=O	-7.84
in CC(C)CC(C)(C)C	-5.2
in CCCCCC	-5.43
in CCCCCCC	-5.38
in CCCCCCCC	-4.84
in CCCCCCCCCCCCCCCC	-5.36
in CCCCCl	-6.67
in CCOC(C)=O	-7.49
in O	-5.77

CCCC(O)CC (centres undefined)
Conditions	solvation free energy, 298 K [kcal/mol]
in O	-4.06

COc1c(Cl)ccc(Cl)c1C(=O)O
Conditions	solvation free energy, 298 K [kcal/mol]
in O	-9.86

C1=CCCC1
Conditions	solvation free energy, 298 K [kcal/mol]
in CN1CCCC1=O	-2.84
in CN(C)C=O	-2.93
in CS(C)=O	-2.72
in O	0.54
in O=CN1CCOCC1	-2.52

C=CC1CC=CCC1 (centres undefined)
Conditions	solvation free energy, 298 K [kcal/mol]
in CCCCCCCCCCCCCCCC	-4.94
in COCCO	-4.42
in CS(C)=O	-3.97
in O	0.36

C#CC(C)(C)O
Conditions	solvation free energy, 298 K [kcal/mol]
in O	-5.18

Ic1ccccc1
Conditions	solvation free energy, 298 K [kcal/mol]
in C1CCOC1	-7.38
in C1COCCO1	-7.22
in CCCCCCC	-6.27
in CCCCCCCCCCCCCCCC	-6.11
in CN(C)C=O	-7.09
in ClC(Cl)(Cl)Cl	-6.81
in N#Cc1ccccc1	-6.98
in O	-1.75
in OCCO	-5.28

CCCCCOC(=O)CCC
Conditions	solvation free energy, 298 K [kcal/mol]
in O	-2.55

C1=CCC=CC1
Conditions	solvation free energy, 298 K [kcal/mol]
in C1CCC2CCCCC2C1	-4.4
in C1CCC(C2CCCCC2)CC1	-4.34
in CCC(C)=O	-4.41
in O	-0.67
in c1ccc2c(c1)CCCC2	-4.58
in c1ccc(C2CCCCC2)cc1	-4.49

CCCCCCCCCCCCCN
Conditions	solvation free energy, 298 K [kcal/mol]
in O	-3.2

CCOCCOC(C)=O
Conditions	solvation free energy, 298 K [kcal/mol]
in O	-5.31

Clc1ccc(Cl)c(-c2cc(Cl)c(Cl)cc2Cl)c1
Conditions	solvation free energy, 298 K [kcal/mol]
in CCCCCCCCO	-12
in O	-2.82

CC1=CCC2(C)CCCC(C)(C)C23CC13 (centres undefined)
Conditions	solvation free energy, 298 K [kcal/mol]
in O	0.46

ClCC(Cl)(Cl)Cl
Conditions	solvation free energy, 298 K [kcal/mol]
in O	-1.43

COC(C)(C)C
Conditions	solvation free energy, 298 K [kcal/mol]
in CC(=O)N(C)C	-3.29
in CC(C)(C)O	-3.81
in CC(C)CC(C)(C)C	-3.58
in CC(C)CCl	-3.89
in CCC(C)Cl	-3.88
in CCCCCCC	-3.54
in CCCCCCCC	-3.51
in CCCCCCCCCC	-3.48
in CCCCCCCCCCCCCCCC	-3.22
in CCCCCCCCCCO	-3.73
in CCCCCCCCO	-3.52
in CCCCCCO	-3.55
in CCCCCl	-3.91
in CCCCN(C=O)CCCC	-3.34
in CCN1CCCC1=O	-3.21
in CCN(CC)C(C)=O	-3.4
in CCNC(C)=O	-3.26
in CCNC=O	-3.21
in CN1CCCCC1=O	-3.22
in CN(C)C=O	-3.18
in CNC(C)=O	-3.12
in CNC=O	-3.08
in CO	-3.78
in COC(=O)OC	-3.52
in ClC(Cl)(Cl)Cl	-3.94
in ClC(Cl)Cl	-4.88
in O	-2.02
in [2H]O[2H]	-2.15

Clc1cc(Cl)c(-c2c(Cl)c(Cl)cc(Cl)c2Cl)cc1Cl
Conditions	solvation free energy, 298 K [kcal/mol]
in O	-2.77
